Results from patent US9175003B2, “Substituted azoanthracene derivatives and intermediates for preparation thereof” (TransTech Pharma, LLC, priority 2009, dated 2015).

Molecular target: human GLP-1 receptor (Homo sapiens (Human), UniProt P43220)
Conditions: read-out: Mean EC50; cAMP, HTRF detection, 30 min at 37° C., HEK-293 cells expressing cloned human GLP-1 receptor

Sequence of human GLP-1 receptor (P43220 24-463): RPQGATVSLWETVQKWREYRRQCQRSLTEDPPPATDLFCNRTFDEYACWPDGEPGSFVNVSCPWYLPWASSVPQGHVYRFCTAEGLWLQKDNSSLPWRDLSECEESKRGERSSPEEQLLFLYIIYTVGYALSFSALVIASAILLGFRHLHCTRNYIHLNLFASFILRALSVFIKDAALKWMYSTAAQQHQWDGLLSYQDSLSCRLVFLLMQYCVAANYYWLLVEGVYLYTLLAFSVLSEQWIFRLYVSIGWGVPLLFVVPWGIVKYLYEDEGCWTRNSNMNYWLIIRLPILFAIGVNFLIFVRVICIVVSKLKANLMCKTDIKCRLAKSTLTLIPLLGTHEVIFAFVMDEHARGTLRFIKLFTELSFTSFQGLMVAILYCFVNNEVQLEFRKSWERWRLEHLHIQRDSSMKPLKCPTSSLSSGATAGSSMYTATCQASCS

Row | SMILES | EC50
1 | Cc1cc(Oc2ccc(C[C@H](NC(=O)[C@@H]3Cc4cc5c(cc4CN3C(=O)c3ccccc3)O[C@@H](c3ccc(OCc4ccc(Cl)c(Cl)c4)cc3)CO5)C(=O)O)cc2)ccn1 [Example 177, (S)-2-({(3S,8S)-7-Benzoyl-3-[4-(3,4-dichloro-benzyloxy)-phenyl]-2,3,6,7,8,9-hexahydro-[1,4]dioxino[2,3-g]isoquinoline-8-carbonyl}-amino)-3-[4-(2-methyl-pyridin-4-yloxy)-phenyl]-propionic acid] | 150 nM
2 | CCC[C@@H](c1ccccc1)N1Cc2cc3c(cc2C[C@H]1C(=O)N[C@@H](Cc1ccc(-c2ccc(C#N)cc2)cc1)C(=O)O)OC[C@H](c1ccc(OCc2ccc(Cl)c(Cl)c2)cc1)O3 [Example 178, (S)-3-(4′-Cyano-biphenyl-4-yl)-2-{[(3S,8S)-3-[4-(3,4-dichloro-benzyloxy)-phenyl]-7-((S)-1-phenyl-butyl)-2,3,6,7,8,9-hexahydro-[1,4]dioxino[2,3-g]isoquinoline-8-carbonyl]-amino}-propionic acid] | 306 nM
3 | CC[C@@H](c1ccccc1)N1Cc2cc3c(cc2C[C@H]1C(=O)N[C@@H](Cc1ccc(-c2ccnc(C)c2C)cc1)C(=O)O)OC[C@H](c1ccc(OCc2ccc(Cl)c(Cl)c2)cc1)O3 [Example 179, (S)-2-{[(3S,8S)-3-[4-(3,4-Dichloro-benzyloxy)-phenyl]-7-((S)-1-phenyl-propyl)-2,3,6,7,8,9-hexahydro-[1,4]dioxino[2,3-g]isoquinoline-8-carbonyl]-amino}-3-[4-(2,3-dimethyl-pyridin-4-yl)-phenyl]-propionic acid] | 5 nM
4 | CC[C@@H](c1ccccc1)N1Cc2cc3c(cc2C[C@H]1C(=O)N[C@@H](Cc1ccc(Oc2ccncc2)cc1)C(=O)O)OC[C@H](c1ccc(OCc2ccc(Cl)c(Cl)c2)cc1)O3 [Example 184] | 74 nM
5 | CC[C@@H](c1ccccc1)N1Cc2cc3c(cc2C[C@H]1C(=O)N[C@@H](Cc1ccc(Oc2cccnc2)cc1)C(=O)O)OC[C@H](c1ccc(OCc2ccc(Cl)c(Cl)c2)cc1)O3 [Example 185, (S)-2-{[(3S,8S)-3-[4-(3,4-Dichloro-benzyloxy)-phenyl]-7-((S)-1-phenyl-propyl)-2,3,6,7,8,9-hexahydro-[1,4]dioxino[2,3-g]isoquinoline-8-carbonyl]-amino}-3-[4-(pyridin-3-yloxy)-phenyl]-propionic acid] | 119 nM
6 | CC[C@@H](c1ccccc1)N1Cc2cc3c(cc2C[C@H]1C(=O)N[C@@H](Cc1ccc(-c2ccnnc2)cc1)C(=O)O)OC[C@H](c1ccc(OCc2ccc(Cl)c(Cl)c2)cc1)O3 [Example 186, (S)-2-{[(3S,8S)-3-[4-(3,4-Dichloro-benzyloxy)-phenyl]-7-((S)-1-phenyl-propyl)-2,3,6,7,8,9-hexahydro-[1,4]dioxino[2,3-g]isoquinoline-8-carbonyl]-amino}-3-(4-pyridazin-4-yl-phenyl)-propionic acid] | 256 nM
7 | CC[C@@H](c1ccccc1)N1Cc2cc3c(cc2C[C@H]1C(=O)N[C@@H](Cc1ccc(-c2ccnn2C)cc1)C(=O)O)OC[C@H](c1ccc(OCc2ccc(Cl)c(Cl)c2)cc1)O3 [Example 191, (S)-2-{[(3S,8S)-3-[4-(3,4-Dichloro-benzyloxy)-phenyl]-7-((S)-1-phenyl-propyl)-2,3,6,7,8,9-hexahydro-[1,4]dioxino[2,3-g]isoquinoline-8-carbonyl]-amino}-3-[4-(2-methyl-2H-pyrazol-3-yl)-phenyl]-propionic acid] | 66 nM
8 | CC[C@@H](c1ccccc1)N1Cc2cc3c(cc2C[C@H]1C(=O)N[C@@H](Cc1ccc(-c2ccnc(O)c2)cc1)C(=O)O)OC[C@H](c1ccc(OCc2ccc(Cl)c(Cl)c2)cc1)O3 [Example 195, (S)-2-{[(3S,8S)-3-[4-(3,4-Dichloro-benzyloxy)-phenyl]-7-((S)-1-phenyl-propyl)-2,3,6,7,8,9-hexahydro-[1,4]dioxino[2,3-g]isoquinoline-8-carbonyl]-amino}-3-[4-(2-hydroxy-pyridin-4-yl)-phenyl]-propionic acid] | 138 nM
9 | CC[C@@H](c1ccccc1)N1Cc2cc3c(cc2C[C@H]1C(=O)N[C@@H](Cc1ccc(-c2ccc(C)nc2)cc1)C(=O)O)OC[C@H](c1ccc(OCc2ccc(Cl)c(Cl)c2)cc1)O3 [Example 196, (S)-2-{[(3S,8S)-3-[4-(3,4-Dichloro-benzyloxy)-phenyl]-7-((S)-1-phenyl-propyl)-2,3,6,7,8,9-hexahydro-[1,4]dioxino[2,3-g]isoquinoline-8-carbonyl]-amino}-3-[4-(6-methyl-pyridin-3-yl)-phenyl]-propionic acid] | 127 nM
10 | CC[C@@H](c1ccccc1)N1Cc2cc3c(cc2C[C@H]1C(=O)N[C@@H](Cc1ccc(-c2cnn(C)c2)cc1)C(=O)O)OC[C@H](c1ccc(OCc2ccc(Cl)c(Cl)c2)cc1)O3 [Example 197, (S)-2-{[(3S,8S)-3-[4-(3,4-Dichloro-benzyloxy)-phenyl]-7-((S)-1-phenyl-propyl)-2,3,6,7,8,9-hexahydro-[1,4]dioxino[2,3-g]isoquinoline-8-carbonyl]-amino}-3-[4-(1-methyl-1H-pyrazol-4-yl)-phenyl]-propionic acid] | 262 nM
11 | CC[C@@H](c1ccccc1)N1Cc2cc3c(cc2C[C@H]1C(=O)N[C@@H](Cc1ccc(-c2ccnc(N)c2)cc1)C(=O)O)OC[C@H](c1ccc(OCc2ccc(Cl)c(Cl)c2)cc1)O3 [Example 208, (S)-3-[4-(2-Amino-pyridin-4-yl)-phenyl]-2-{[(3S,8S)-3-[4-(3,4-dichloro-benzyloxy)-phenyl]-7-((S)-1-phenyl-propyl)-2,3,6,7,8,9-hexahydro-[1,4]dioxino[2,3-g]isoquinoline-8-carbonyl]-amino}-propionic acid] | 72 nM

More lines, in order of falling EC50, values ahead:

Row | EC50 | SMILES
12 | 61 nM | CC[C@@H](c1ccccc1)N1Cc2cc3c(cc2C[C@H]1C(=O)N[C@@H](Cc1ccc(-c2ccnc(CO)c2)cc1)C(=O)O)OC[C@H](c1ccc(OCc2ccc(Cl)c(Cl)c2)cc1)O3 [Example 206, (S)-2-{[(3S,8S)-3-[4-(3,4-Dichloro-benzyloxy)-phenyl]-7-((S)-1-phenyl-propyl)-2,3,6,7,8,9-hexahydro-[1,4]dioxino[2,3-g]isoquinoline-8-carbonyl]-amino}-3-[4-(2-hydroxymethyl-pyridin-4-yl)-phenyl]-propionic acid]
13 | 31 nM | CC[C@@H](c1ccccc1)N1Cc2cc3c(cc2C[C@H]1C(=O)N[C@@H](Cc1ccc(Oc2ccnc(C)c2C)cc1)C(=O)O)OC[C@H](c1ccc(OCc2ccc(Cl)c(Cl)c2)cc1)O3 [Example 189, (S)-2-{[(3S,8S)-3-[4-(3,4-Dichloro-benzyloxy)-phenyl]-7-((S)-1-phenyl-propyl)-2,3,6,7,8,9-hexahydro-[1,4]dioxino[2,3-g]isoquinoline-8-carbonyl]-amino}-3-[4-(2,3-dimethyl-pyridin-4-yloxy)-phenyl]-propionic acid]
14 | 29 nM | CC[C@@H](c1ccccc1)N1Cc2cc3c(cc2C[C@H]1C(=O)N[C@@H](Cc1ccc(-c2ccnc4c2CCC4)cc1)C(=O)O)OC[C@H](c1ccc(OCc2ccc(Cl)c(Cl)c2)cc1)O3 [Example 182, (S)-2-{[(3S,8S)-3-[4-(3,4-Dichloro-benzyloxy)-phenyl]-7-((S)-1-phenyl-propyl)-2,3,6,7,8,9-hexahydro-[1,4]dioxino[2,3-g]isoquinoline-8-carbonyl]-amino}-3-[4-(6,7-dihydro-5H-[1]pyrindin-4-yl)-phenyl]-propionic acid]
15 | 21 nM | CC[C@@H](c1ccccc1)N1Cc2cc3c(cc2C[C@H]1C(=O)N[C@@H](Cc1ccc(-c2ccnc4ccccc24)cc1)C(=O)O)OC[C@H](c1ccc(OCc2ccc(Cl)c(Cl)c2)cc1)O3 [Example 211, (S)-2-{[(3S,8S)-3-[4-(3,4-Dichloro-benzyloxy)-phenyl]-7-((S)-1-phenyl-propyl)-2,3,6,7,8,9-hexahydro-[1,4]dioxino[2,3-g]isoquinoline-8-carbonyl]-amino}-3-(4-quinolin-4-yl-phenyl)-propionic acid]
16 | 16 nM | CC[C@@H](c1ccccc1)N1Cc2cc3c(cc2C[C@H]1C(=O)N[C@@H](Cc1ccc(Oc2ccnc(C)c2)cc1)C(=O)O)OC[C@H](c1ccc(OCc2ccc(Cl)c(Cl)c2)cc1)O3 [Example 181, (S)-2-{[(3S,8S)-3-[4-(3,4-Dichloro-benzyloxy)-phenyl]-7-((S)-1-phenyl-propyl)-2,3,6,7,8,9-hexahydro-[1,4]dioxino[2,3-g]isoquinoline-8-carbonyl]-amino}-3-[4-(2-methyl-pyridin-4-yloxy)-phenyl]-propionic acid]
17 | 14 nM | CC[C@@H](c1ccccc1)N1Cc2cc3c(cc2C[C@H]1C(=O)N[C@@H](Cc1ccc(-c2cc(C)nc(C)c2)cc1)C(=O)O)OC[C@H](c1ccc(OCc2ccc(Cl)c(Cl)c2)cc1)O3 [Example 188, (S)-2-{[(3S,8S)-3-[4-(3,4-Dichloro-benzyloxy)-phenyl]-7-((S)-1-phenyl-propyl)-2,3,6,7,8,9-hexahydro-[1,4]dioxino[2,3-g]isoquinoline-8-carbonyl]-amino}-3-[4-(2,6-dimethyl-pyridin-4-yl)-phenyl]-propionic acid]
18 | 11 nM | CC[C@@H](c1ccccc1)N1Cc2cc3c(cc2C[C@H]1C(=O)N[C@@H](Cc1ccc(-c2cc(C)ncc2C)cc1)C(=O)O)OC[C@H](c1ccc(OCc2ccc(Cl)c(Cl)c2)cc1)O3 [Example 190, (S)-2-{[(3S,8S)-3-[4-(3,4-Dichloro-benzyloxy)-phenyl]-7-((S)-1-phenyl-propyl)-2,3,6,7,8,9-hexahydro-[1,4]dioxino[2,3-g]isoquinoline-8-carbonyl]-amino}-3-[4-(2,5-dimethyl-pyridin-4-yl)-phenyl]-propionic acid]
19 | 3 nM | CC[C@@H](c1ccccc1)N1Cc2cc3c(cc2C[C@H]1C(=O)N[C@@H](Cc1ccc(-c2cc(C)nn2C)cc1)C(=O)O)OC[C@H](c1ccc(OCc2ccc(Cl)c(Cl)c2)cc1)O3 [Example 180, (S)-2-{[(3S,8S)-3-[4-(3,4-Dichloro-benzyloxy)-phenyl]-7-((S)-1-phenyl-propyl)-2,3,6,7,8,9-hexahydro-[1,4]dioxino[2,3-g]isoquinoline-8-carbonyl]-amino}-3-[4-(2,5-dimethyl-2H-pyrazol-3-yl)-phenyl]-propionic acid]
